Measured values published in article PMC9792171, “Design and synthesis of new thiazolidinone/uracil derivatives as antiproliferative agents targeting EGFR and/or BRAF^V600E” (Frontiers in Chemistry, 2022).

Key:
[1] = test system: MCF-7 (breast cancer cell line); assay: Antiproliferative MTT assay, MCF-7; type: cell-based; conditions: Homo sapiens, MCF7; MCF-7, MTT; read-out: Antiproliferative activity IC50 ± SEM (nM) MCF-7
Procedure: (§1) Using the MTT assay ([Abdelrahman et al., 2017]; [El-Sherief et al., 2018]) and doxorubicin as the reference drug, 3a-f and 5a-l were tested for antiproliferative activity against four human cancer cell lines: Panc-1 (pancreas cancer cell line), MCF-7 (breast cancer cell line), HT-29 (colon cancer cell line), and A-549 (epithelial cancer cell line).
(§2) To explore the antiproliferative potential of compounds MTT assay was performed according to previously reported procedure (El-Sherief, H.A.M., et al., 2018; Abdelrahman, M. H., et al., 2017) using different cell lines to explore the antiproliferative potential of compounds propidium iodide fluorescence assay was performed using different cell lines. To calculate the total nuclear DNA, a fluorescent dye (propidium iodide, PI) is used which can attach to the DNA, thus offering a quick and precise technique. PI cannot pass through the cell membrane and its signal intensity can be considered as directly proportional to quantity of cellular DNA. Cells whose cell membranes are damaged or have changed permeability are counted as dead ones. The assay was performed by seeding the cells of different cell lines at a density of 3000-7500 cells/well (in 200µl medium) in culture plates followed by incubation for 24h at 37 °C in humidified 5% CO2/95% air atmospheric conditions. The medium was removed; the compounds were added to the plates at 10 µM concentrations (in 0.1% DMSO) in triplicates, followed by incubation for 48 h. DMSO (0.1%) was used as control. After incubation, medium was removed followed by the addition of PI (25 µl, 50µg/mL in water/medium) to each well of the plates. At -80 °C, the plates were allowed to freeze for 24 h, followed by thawing at 25 °C. A fluorometer (Polar-Star BMG Tech) was used to record the readings at excitation and emission wavelengths of 530 and 620 nm for each well. The percentage cytotoxicity of compounds was calculated using the following formula: […]

[2] = test system: Panc-1 (pancreas cancer cell line); assay: Antiproliferative MTT assay, Panc-1; type: cell-based; conditions: Homo sapiens; Panc-1, MTT; read-out: Antiproliferative activity IC50 ± SEM (nM) Panc-1
Procedure: as §1, §2

[3] = test system: HT-29 (colon cancer cell line); assay: Antiproliferative MTT assay, HT-29; type: cell-based; conditions: Homo sapiens; HT-29, MTT; read-out: Antiproliferative activity IC50 ± SEM (nM) HT-29
Procedure: as §1, §2

BRAF^V600E = biological target: T1, BRAF^V600E (Mus musculus, UniProt P28028, V585E); assay: BRAF^V600E inhibitory assay (V600E mutant BRAF kinase assay); type: biochemical; conditions: read-out: BRAF^V600E inhibition IC50 ± SEM
T1 construct: Mouse full-length GST-tagged BRAF^V600E (7.5 ng, Invitrogen, PV3849); GST; purchased Invitrogen PV3849
Procedure: Mouse full-length GST-tagged BRAF^V600E (7.5 ng, Invitrogen, PV3849) was pre-incubated with drug (1 µL) and assay dilution buffer (4 µL) for 60 min at 25 °C. In assay dilution buffer, a solution (5 µL) containing MgCl2 (30 mM), ATP (200 µM), recombinant human full length (200 ng) […] N-terminal His-tagged MEK1 (Invitrogen) was added to start the assay, subsequent to incubation for 25 min at 25 °C. The assay was stopped using 5X protein denaturing buffer (LDS) solution (5 µL). To further denature the protein, heat (70° C) was applied for 5 min. […] 10 µL of each reaction was loaded into the precast plates and electrophoresis was allowed to proceed. After completion of electrophoresis, the front part of the precast gel plate (holding hot ATP) was cut and afterwards cast-off. The dried gel was developed using a phosphor screen. […] To study the effect of compounds on cell-based pERK1/2 activity in cancer cells, commercially available ELISA kits (Invitrogen) were used according to manufacturer’s instructions.

T1 sequence (P28028 whole entry V585E): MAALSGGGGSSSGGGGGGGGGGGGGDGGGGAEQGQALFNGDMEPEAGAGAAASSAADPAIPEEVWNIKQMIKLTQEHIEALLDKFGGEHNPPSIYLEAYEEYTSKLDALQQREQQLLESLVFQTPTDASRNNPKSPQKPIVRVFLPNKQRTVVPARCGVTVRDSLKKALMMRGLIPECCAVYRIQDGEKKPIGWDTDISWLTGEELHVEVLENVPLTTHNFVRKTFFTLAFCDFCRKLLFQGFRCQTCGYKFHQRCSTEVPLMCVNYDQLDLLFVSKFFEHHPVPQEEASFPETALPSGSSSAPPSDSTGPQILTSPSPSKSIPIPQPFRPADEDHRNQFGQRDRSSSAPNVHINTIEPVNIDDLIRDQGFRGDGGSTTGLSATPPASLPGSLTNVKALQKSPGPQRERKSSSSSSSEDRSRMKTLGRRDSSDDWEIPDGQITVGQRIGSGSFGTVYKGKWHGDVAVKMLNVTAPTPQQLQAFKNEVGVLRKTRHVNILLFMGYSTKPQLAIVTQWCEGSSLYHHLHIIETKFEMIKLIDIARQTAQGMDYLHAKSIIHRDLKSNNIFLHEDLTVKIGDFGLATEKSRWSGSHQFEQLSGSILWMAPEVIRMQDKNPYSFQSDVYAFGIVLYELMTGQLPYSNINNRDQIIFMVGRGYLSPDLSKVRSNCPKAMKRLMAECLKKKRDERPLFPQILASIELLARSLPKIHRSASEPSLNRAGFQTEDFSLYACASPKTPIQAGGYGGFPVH

COc1cccc(NC(=S)Nc2c[nH]c(=O)[nH]c2=O)c1 [Compound 3c, 1-(2,4-Dioxo-1,2,3,4-tetrahydropyrimidin-5-yl)-3-(3-methoxyphenyl)thiourea]
IC50 [1]: 1400 ± 100 nM
IC50 [2]: 2100 ± 200 nM
IC50 [3]: 2100 ± 200 nM
IC50 (BRAF^V600E): 0.148 ± 0.012 µM
melting point: 350 to 352 °C

CCOC(=O)/C=C1\S/C(=N\c2c[nH]c(=O)[nH]c2=O)N(c2ccc(C)cc2)C1=O [Compound 5b, (Z)-Ethyl-2-((Z)-2-((2,4-dioxo-1,2,3,4-tetrahydropyrimidin-5-yl)imino)-4-oxo-3-(p-tolyl)thiazolidin-5-ylidene)acetate]
IC50 [1]: 1100 ± 100 nM
IC50 [2]: 1400 ± 100 nM
IC50 [3]: 1400 ± 100 nM
IC50 (BRAF^V600E): 0.093 ± 0.008 µM

CCOC(=O)/C=C1\S/C(=N\c2c[nH]c(=O)[nH]c2=O)N(c2cccc(OC)c2)C1=O [Compound 5c, (Z)-Ethyl-2-((Z)-2-((2,4-dioxo-1,2,3,4-tetrahydropyrimidin-5-yl)imino)-3-(3-methoxyphenyl)-4-oxo-thiazolidin-5-ylidene)acetate]
IC50 [1]: 1600 ± 100 nM
IC50 [2]: 1900 ± 200 nM
IC50 [3]: 1800 ± 100 nM
IC50 (BRAF^V600E): 0.107 ± 0.01 µM
melting point: 330 to 332 °C

COC(=O)/C=C1\S/C(=N\c2c[nH]c(=O)[nH]c2=O)N(c2ccc(C)cc2)C1=O [Compound 5h, (Z)-Methyl-2-((Z)-2-((2,4-dioxo-1,2,3,4-tetrahydropyrimidin-5-yl)imino)-4-oxo-3-(p-tolyl)-thiazolidin-5-ylidene)acetate]
IC50 [1]: 1700 ± 100 nM
IC50 [2]: 1800 ± 100 nM
IC50 [3]: 1700 ± 100 nM
IC50 (BRAF^V600E): 0.137 ± 0.012 µM
melting point: 308 to 310 °C

COC(=O)/C=C1\S/C(=N\c2c[nH]c(=O)[nH]c2=O)N(c2cccc(OC)c2)C1=O [Compound 5i, (Z)-Methyl-2-((Z)-2-((2,4-dioxo-1,2,3,4-tetrahydropyrimidin-5-yl)imino)-3-(3-methoxyphenyl)-4-oxothiazolidin-5-ylidene)acetate]
IC50 [1]: 1000 ± 80 nM
IC50 [2]: 1500 ± 100 nM
IC50 [3]: 1600 ± 100 nM
IC50 (BRAF^V600E): 0.122 ± 0.012 µM
melting point: 322 to 324 °C

COC(=O)/C=C1\S/C(=N\c2c[nH]c(=O)[nH]c2=O)N(Cc2ccccc2)C1=O [Compound 5j, (Z)-Methyl-2-((Z)-3-benzyl-2-((2,4-dioxo-1,2,3,4-tetrahydropyrimidin-5-yl)imino)-4-oxothiazolidin-5-ylidene)acetate]
IC50 [1]: 900 ± 100 nM
IC50 [2]: 1200 ± 100 nM
IC50 [3]: 1200 ± 100 nM
IC50 (BRAF^V600E): 0.115 ± 0.012 µM
melting point: 306 to 308 °C
